From the NIST ThermoML archive (doi:10.1021/je050089u)
Numbers after ± are expanded uncertainties.

Assay: excess molar enthalpy (molar enthalpy of mixing); xn = mol fraction of the nth substance listed
Settings: Fluid (supercritical or subcritical phases)

**Q.** What does the source list for `COC(=O)OC` [dimethyl carbonate] + O=C=O?
**A.** excess molar enthalpy (298.15 K, 5000 kPa, x2 = 0.0793): -0.207 ± 0.00382 kcal/mol; excess molar enthalpy (298.15 K, 5000 kPa, x2 = 0.1538): -0.427 ± 0.00693 kcal/mol; excess molar enthalpy (298.15 K, 5000 kPa, x2 = 0.224): -0.636 ± 0.0103 kcal/mol; excess molar enthalpy (298.15 K, 5000 kPa, x2 = 0.2902): -0.832 ± 0.0131 kcal/mol; excess molar enthalpy (298.15 K, 5000 kPa, x2 = 0.3528): -1.02 ± 0.0163 kcal/mol; excess molar enthalpy (298.15 K, 5000 kPa, x2 = 0.4121): -1.15 ± 0.0182 kcal/mol; excess molar enthalpy (298.15 K, 5000 kPa, x2 = 0.4683): -1.33 ± 0.021 kcal/mol; excess molar enthalpy (298.15 K, 5000 kPa, x2 = 0.5216): -1.48 ± 0.0232 kcal/mol; excess molar enthalpy (298.15 K, 5000 kPa, x2 = 0.5723): -1.59 ± 0.0239 kcal/mol; excess molar enthalpy (298.15 K, 5000 kPa, x2 = 0.6206): -1.71 ± 0.0263 kcal/mol; excess molar enthalpy (298.15 K, 5000 kPa, x2 = 0.6666): -1.82 ± 0.0287 kcal/mol; excess molar enthalpy (298.15 K, 5000 kPa, x2 = 0.7104): -1.92 ± 0.0311 kcal/mol; excess molar enthalpy (298.15 K, 5000 kPa, x2 = 0.7523): -1.99 ± 0.0311 kcal/mol; excess molar enthalpy (298.15 K, 5000 kPa, x2 = 0.7924): -2.07 ± 0.0335 kcal/mol; excess molar enthalpy (298.15 K, 5000 kPa, x2 = 0.8307): -2.13 ± 0.0335 kcal/mol; excess molar enthalpy (298.15 K, 5000 kPa, x2 = 0.8382): -2.09 ± 0.0335 kcal/mol; excess molar enthalpy (298.15 K, 5000 kPa, x2 = 0.8674): -1.69 ± 0.0263 kcal/mol; excess molar enthalpy (298.15 K, 5000 kPa, x2 = 0.9026): -1.26 ± 0.0201 kcal/mol; excess molar enthalpy (298.15 K, 5000 kPa, x2 = 0.9364): -0.785 ± 0.0124 kcal/mol; excess molar enthalpy (298.15 K, 5000 kPa, x2 = 0.9688): -0.384 ± 0.00621 kcal/mol; excess molar enthalpy (298.15 K, 5000 kPa, x2 = 0.9969): 0.0153 ± 0.00191 kcal/mol; excess molar enthalpy (298.15 K, 5500 kPa, x2 = 0.1548): -0.4 ± 0.00669 kcal/mol; excess molar enthalpy (298.15 K, 5500 kPa, x2 = 0.2253): -0.618 ± 0.01 kcal/mol; excess molar enthalpy (298.15 K, 5500 kPa, x2 = 0.2918): -0.794 ± 0.0127 kcal/mol; excess molar enthalpy (298.15 K, 5500 kPa, x2 = 0.3546): -0.967 ± 0.0153 kcal/mol; excess molar enthalpy (298.15 K, 5500 kPa, x2 = 0.4139): -1.12 ± 0.0177 kcal/mol; excess molar enthalpy (298.15 K, 5500 kPa, x2 = 0.4702): -1.27 ± 0.0201 kcal/mol; excess molar enthalpy (298.15 K, 5500 kPa, x2 = 0.5235): -1.4 ± 0.0222 kcal/mol; excess molar enthalpy (298.15 K, 5500 kPa, x2 = 0.5742): -1.52 ± 0.0239 kcal/mol; excess molar enthalpy (298.15 K, 5500 kPa, x2 = 0.6223): -1.61 ± 0.0263 kcal/mol; excess molar enthalpy (298.15 K, 5500 kPa, x2 = 0.6682): -1.73 ± 0.0263 kcal/mol; excess molar enthalpy (298.15 K, 5500 kPa, x2 = 0.712): -1.82 ± 0.0287 kcal/mol; excess molar enthalpy (298.15 K, 5500 kPa, x2 = 0.7537): -1.91 ± 0.0287 kcal/mol; excess molar enthalpy (298.15 K, 5500 kPa, x2 = 0.7936): -1.98 ± 0.0311 kcal/mol; excess molar enthalpy (298.15 K, 5500 kPa, x2 = 0.8318): -2.02 ± 0.0311 kcal/mol; excess molar enthalpy (298.15 K, 5500 kPa, x2 = 0.8683): -2.04 ± 0.0311 kcal/mol; excess molar enthalpy (298.15 K, 5500 kPa, x2 = 0.9033): -2.03 ± 0.0311 kcal/mol; excess molar enthalpy (298.15 K, 5500 kPa, x2 = 0.9368): -1.51 ± 0.0237 kcal/mol; excess molar enthalpy (298.15 K, 5500 kPa, x2 = 0.9691): -0.767 ± 0.0122 kcal/mol; excess molar enthalpy (298.15 K, 6000 kPa, x2 = 0.1557): -0.389 ± 0.00645 kcal/mol; excess molar enthalpy (298.15 K, 6000 kPa, x2 = 0.2265): -0.558 ± 0.00908 kcal/mol; excess molar enthalpy (298.15 K, 6000 kPa, x2 = 0.2932): -0.797 ± 0.0127 kcal/mol; excess molar enthalpy (298.15 K, 6000 kPa, x2 = 0.3561): -0.905 ± 0.0143 kcal/mol; excess molar enthalpy (298.15 K, 6000 kPa, x2 = 0.4156): -1.04 ± 0.0165 kcal/mol; excess molar enthalpy (298.15 K, 6000 kPa, x2 = 0.4718): -1.19 ± 0.0189 kcal/mol; excess molar enthalpy (298.15 K, 6000 kPa, x2 = 0.5252): -1.29 ± 0.0203 kcal/mol; excess molar enthalpy (298.15 K, 6000 kPa, x2 = 0.5758): -1.4 ± 0.022 kcal/mol; excess molar enthalpy (298.15 K, 6000 kPa, x2 = 0.6239): -1.52 ± 0.0239 kcal/mol; excess molar enthalpy (298.15 K, 6000 kPa, x2 = 0.6697): -1.62 ± 0.0263 kcal/mol; excess molar enthalpy (298.15 K, 6000 kPa, x2 = 0.7134): -1.69 ± 0.0263 kcal/mol; excess molar enthalpy (298.15 K, 6000 kPa, x2 = 0.755): -1.73 ± 0.0263 kcal/mol; excess molar enthalpy (298.15 K, 6000 kPa, x2 = 0.7947): -1.8 ± 0.0287 kcal/mol; excess molar enthalpy (298.15 K, 6000 kPa, x2 = 0.8327): -1.85 ± 0.0287 kcal/mol; excess molar enthalpy (298.15 K, 6000 kPa, x2 = 0.8691): -1.87 ± 0.0287 kcal/mol; excess molar enthalpy (298.15 K, 6000 kPa, x2 = 0.9039): -1.89 ± 0.0287 kcal/mol; excess molar enthalpy (298.15 K, 6000 kPa, x2 = 0.9502): -1.86 ± 0.0287 kcal/mol; excess molar enthalpy (298.15 K, 6000 kPa, x2 = 0.9693): -1.78 ± 0.0287 kcal/mol; excess molar enthalpy (298.15 K, 6000 kPa, x2 = 0.9817): -0.864 ± 0.0139 kcal/mol; excess molar enthalpy (303.15 K, 5000 kPa, x2 = 0.0793): -0.237 ± 0.00406 kcal/mol; excess molar enthalpy (303.15 K, 5000 kPa, x2 = 0.1538): -0.446 ± 0.00717 kcal/mol; excess molar enthalpy (303.15 K, 5000 kPa, x2 = 0.224): -0.641 ± 0.0103 kcal/mol; excess molar enthalpy (303.15 K, 5000 kPa, x2 = 0.2902): -0.833 ± 0.0134 kcal/mol; excess molar enthalpy (303.15 K, 5000 kPa, x2 = 0.3528): -1.01 ± 0.016 kcal/mol; excess molar enthalpy (303.15 K, 5000 kPa, x2 = 0.4121): -1.19 ± 0.0189 kcal/mol; excess molar enthalpy (303.15 K, 5000 kPa, x2 = 0.4683): -1.33 ± 0.021 kcal/mol; excess molar enthalpy (303.15 K, 5000 kPa, x2 = 0.5216): -1.48 ± 0.0234 kcal/mol; excess molar enthalpy (303.15 K, 5000 kPa, x2 = 0.5723): -1.6 ± 0.0263 kcal/mol; excess molar enthalpy (303.15 K, 5000 kPa, x2 = 0.6206): -1.71 ± 0.0263 kcal/mol; excess molar enthalpy (303.15 K, 5000 kPa, x2 = 0.6666): -1.83 ± 0.0287 kcal/mol; excess molar enthalpy (303.15 K, 5000 kPa, x2 = 0.7104): -1.93 ± 0.0311 kcal/mol; excess molar enthalpy (303.15 K, 5000 kPa, x2 = 0.7523): -2.01 ± 0.0311 kcal/mol; excess molar enthalpy (303.15 K, 5000 kPa, x2 = 0.7686): -2.04 ± 0.0311 kcal/mol; excess molar enthalpy (303.15 K, 5000 kPa, x2 = 0.7766): -2.04 ± 0.0311 kcal/mol; excess molar enthalpy (303.15 K, 5000 kPa, x2 = 0.8307): -1.48 ± 0.0234 kcal/mol; excess molar enthalpy (303.15 K, 5000 kPa, x2 = 0.8674): -1.15 ± 0.0182 kcal/mol; excess molar enthalpy (303.15 K, 5000 kPa, x2 = 0.9026): -0.913 ± 0.0146 kcal/mol; excess molar enthalpy (303.15 K, 5000 kPa, x2 = 0.9364): -0.571 ± 0.00932 kcal/mol; excess molar enthalpy (303.15 K, 5000 kPa, x2 = 0.9688): -0.254 ± 0.0043 kcal/mol; excess molar enthalpy (303.15 K, 5500 kPa, x2 = 0.0798): -0.214 ± 0.00382 kcal/mol; excess molar enthalpy (303.15 K, 5500 kPa, x2 = 0.1548): -0.438 ± 0.00717 kcal/mol; excess molar enthalpy (303.15 K, 5500 kPa, x2 = 0.2253): -0.619 ± 0.01 kcal/mol; excess molar enthalpy (303.15 K, 5500 kPa, x2 = 0.2918): -0.798 ± 0.0127 kcal/mol; excess molar enthalpy (303.15 K, 5500 kPa, x2 = 0.3546): -0.989 ± 0.0158 kcal/mol; excess molar enthalpy (303.15 K, 5500 kPa, x2 = 0.4139): -1.15 ± 0.0182 kcal/mol; excess molar enthalpy (303.15 K, 5500 kPa, x2 = 0.4702): -1.3 ± 0.0206 kcal/mol; excess molar enthalpy (303.15 K, 5500 kPa, x2 = 0.5235): -1.41 ± 0.0222 kcal/mol; excess molar enthalpy (303.15 K, 5500 kPa, x2 = 0.5742): -1.54 ± 0.0239 kcal/mol; excess molar enthalpy (303.15 K, 5500 kPa, x2 = 0.6223): -1.64 ± 0.0263 kcal/mol; excess molar enthalpy (303.15 K, 5500 kPa, x2 = 0.6682): -1.75 ± 0.0287 kcal/mol; excess molar enthalpy (303.15 K, 5500 kPa, x2 = 0.712): -1.85 ± 0.0287 kcal/mol; excess molar enthalpy (303.15 K, 5500 kPa, x2 = 0.7537): -1.92 ± 0.0311 kcal/mol; excess molar enthalpy (303.15 K, 5500 kPa, x2 = 0.7936): -1.98 ± 0.0311 kcal/mol; excess molar enthalpy (303.15 K, 5500 kPa, x2 = 0.8318): -2.02 ± 0.0311 kcal/mol; excess molar enthalpy (303.15 K, 5500 kPa, x2 = 0.8392): -2.01 ± 0.0311 kcal/mol; excess molar enthalpy (303.15 K, 5500 kPa, x2 = 0.8466): -1.89 ± 0.0287 kcal/mol; excess molar enthalpy (303.15 K, 5500 kPa, x2 = 0.8683): -1.62 ± 0.0263 kcal/mol; excess molar enthalpy (303.15 K, 5500 kPa, x2 = 0.9033): -1.18 ± 0.0186 kcal/mol; excess molar enthalpy (303.15 K, 5500 kPa, x2 = 0.9368): -0.733 ± 0.0117 kcal/mol; excess molar enthalpy (303.15 K, 5500 kPa, x2 = 0.9691): -0.331 ± 0.0055 kcal/mol; excess molar enthalpy (303.15 K, 6000 kPa, x2 = 0.0803): -0.202 ± 0.00382 kcal/mol; excess molar enthalpy (303.15 K, 6000 kPa, x2 = 0.1557): -0.41 ± 0.00669 kcal/mol; excess molar enthalpy (303.15 K, 6000 kPa, x2 = 0.2265): -0.6 ± 0.00956 kcal/mol; excess molar enthalpy (303.15 K, 6000 kPa, x2 = 0.2932): -0.78 ± 0.0124 kcal/mol; excess molar enthalpy (303.15 K, 6000 kPa, x2 = 0.3561): -0.923 ± 0.0146 kcal/mol; excess molar enthalpy (303.15 K, 6000 kPa, x2 = 0.4156): -1.1 ± 0.0174 kcal/mol; excess molar enthalpy (303.15 K, 6000 kPa, x2 = 0.4718): -1.23 ± 0.0194 kcal/mol; excess molar enthalpy (303.15 K, 6000 kPa, x2 = 0.5252): -1.36 ± 0.0215 kcal/mol; excess molar enthalpy (303.15 K, 6000 kPa, x2 = 0.5758): -1.47 ± 0.0232 kcal/mol; excess molar enthalpy (303.15 K, 6000 kPa, x2 = 0.6239): -1.58 ± 0.0239 kcal/mol; excess molar enthalpy (303.15 K, 6000 kPa, x2 = 0.6697): -1.67 ± 0.0263 kcal/mol; excess molar enthalpy (303.15 K, 6000 kPa, x2 = 0.7134): -1.76 ± 0.0287 kcal/mol; excess molar enthalpy (303.15 K, 6000 kPa, x2 = 0.755): -1.82 ± 0.0287 kcal/mol
